# Test results as given in patent EP0847397B1, “WATER-SOLUBLE C-RING ANALOGUES OF 20 (S)-CAMPTOTHECIN” (DR. REDDY'S RESEARCH FOUNDATION, priority 1996, dated 1997).
# Assays:
# [1] = result in words, compared with 20(S)-camptothecin; cited from earlier work
# [2] = Solubility by HPLC method; assay type: physicochemical; conditions: aqueous buffer, 0.1M sodium acetate buffer pH 5.0, 24 hours, room temperature
# Procedure: 4. Solubility by HPLC method:
# Excess of compound was soaked in 0.5 ml of 0.1M sodium acetate buffer at pH 5.0 for 24 hours at room temperature. The solution was filtered through 0.45 micron PVDF syringe filter (Gelman Sciences). The filtrate was injected into HPLC at different volumes (10 & 20 µl). Chromatograms were recorded. Responses recorded were extrapolated from the calibration curve and the solubility of the compound was calculated. (J. Med. Chem., 1995; 38: 400)
# [3] = MTD in Swiss albino mice (single dose); conditions: mouse, in vivo, 14 days observation
# Procedure: 1. MTD in Swiss albino mice:
# Each Swiss Albino mouse is injected with a single does of the test compound on a day designated as Day 1: Doses that were tested are 400, 200, 100, 50, 25, 12.5, 8.3, 6.25 and 3.13 mg/kg body weight. […] (As per the protocol followed by the U.S. National Cancer Institute)
# Pharmacokinetics at MTD = assay type: in vivo, Swiss albino mice; conditions: mouse, ip, intraperitoneal, plasma
# Procedure: 3. Pharmacokinetics at MTD:
# All studies were carried out in Swiss albino mice in the weight range 35-40 g. The animals were fasted overnight prior to dosage of the drug and were fed 3 hours after dosing. The animals were dosed intraperitonially as a solution in DMSO:water (50:50; v/v). Blood samples were drawn from orbital sinus at 1, 2, 4, 6 and 8 hours after administration of the dose into heparinized tubes, centrifuged at 13000 RPM for 10 min. Plasma samples were separated and analyzed by HPLC. To 50 µl of the sample, 100 µl of chilled acidified methanol was added and mixed to precipitate proteins. The sample was centrifuged at 13,000 RPM for 10 min. 100 µl of supernatant was made up to 200 µl with methanol:water (50:50; v/v) and 100 µl was injected on HPLC. Peak area of the drug was used for quantification. Calibration, control and recovery samples were prepared by spiking 50 µl of blank plasma with known amounts of the drug and processed in the same manner as the samples. (J. Natl. Cancer Inst., 1996; 88:817-824).
# [4] = tested on: NCI's 60 human tumor cell line assay; assay: cells; assay type: cell-based; conditions: 60 cell, 48 h, read-out: IC50 (mean GI50 against NCI's 60 human tumor cell line assay)
# DU-145 = assay: In vitro activity after 1 hour exposure (Sulforhodamine B); assay type: cell-based; conditions: Homo sapiens; DU-145, 1 hour exposure then 48 hours drug-free
# Procedure: (§1) 6. In vitro activity after 1 hour exposure:
# (§2) Grow the cells in 15 ml of Complete Medium (RPM1-1640 with 10% Fetal bovine serum and 0.2% NaHCO3) for 3-5 days to obtain a cell number of 10^6 cells/flask. The medium is removed and the attached cells are washed with Phosphate Buffered Saline (PBS). 1 ml of 0.1% Trypsin-EDTA is added and incubated for 5 min at 37°C. Tap the flasks gently and add 5 ml of complete medium. Remove cell suspension and centrifuge at 2000 rpm for 5 min. Discard the supernatant and suspend the pellet in 5 ml of complete medium. Count the cell number in a haemocytometer. Dilute the cell suspension to 10,000 cells/100 µl in complete medium. Plate out 100 µl of cell suspension in each of 96 well microtitre plate and incubate for 24 hrs at 37°C. and 5% CO2. Terminate the reference blank (plated out separately) with 25 µl of 50% cold Trichloroacetic acid (TCA). Incubate for 1 hour at 4°C. Wash the plate (five times) with deionized water. Air dry and preserve the plate at 4°C. for determination of T0 value. Prepare suitable dilution of the test compound in complete medium and add 100 µl to each well to maintain the final concentration ranging between 10^-4M and 10^-8M. Incubate for 1 hr at 37°C. and 5% CO2. Centrifuge the microtitre plate at 1000 rpm for 5 min. Remove the supernatant. Wash the cells twice with 100 µl of PBS to remove the traces of test compound. Add 200 µl of complete medium to each well and incubate for 48 hours at 37°C. and 5% CO2. Terminate the cell growth with the addition of 50 µl of 50% cold TCA. Incubate the plate for 1 hr at 4°C. Wash the plates with deionized water (five times) and air dry. Add 100 µl of Sulforhodamine B solution (0.4% in 1% acetic acid) to each well. Keep at room temperature for 15 minutes. Wash (five times) with 1% acetic acid and air dry. Add 100 µl of 10mM Trizma base (Sigma), shake gently on plate shaker for 15 minutes and read the optical density at 490 nm in Spectrophotometric plate reader. (as per the protocol followed by the U.S. National Cancer Institute.
# UACC-62 = assay: as above; assay type: cell-based; conditions: Homo sapiens; UACC-62, 1 hour exposure then 48 hours drug-free
# Procedure: as §1, §2
# OVCAR-8 = assay: as above; assay type: cell-based; conditions: Homo sapiens; OVCAR-8, 1 hour exposure then 48 hours drug-free
# Procedure: as §1, §2
# MCF-7/ADR = assay: as above; assay type: cell-based; conditions: Homo sapiens, NCI/ADR-RES, 1 hour exposure then 48 hours drug-free
# Procedure: as §1, §2
# SF-268 = assay: as above; assay type: cell-based; conditions: Homo sapiens
# Procedure: as §1, §2
# ACHN = assay: as above; assay type: cell-based; conditions: Homo sapiens, 1 hour exposure then 48 hours drug-free
# Procedure: as §1, §2
# HOP-62 = assay: as above; assay type: cell-based; conditions: Homo sapiens; HOP-62, 1 hour exposure then 48 hours drug-free
# Procedure: as §1, §2
# [5] = Solubility by routine method; assay type: physicochemical; conditions: deionized water, 37°C
# Procedure: 5. Solubility by routine method:
# Compound was suspended in 5 ml of deionized water and heated to 37°C. for 10 min. Then, the solution was filtered and the filtrate was evaporated to drying using methanol and the solid residue was weighed.
# MCF 7 = assay: NCI in vitro 60 human tumor cell line assay; assay type: cell-based; conditions: MCF7, 48 h, read-out: Total Growth Inhibition (TGI)
# Procedure: (§3) Each test compound was screened against a battery of 60 human cell lines obtained from eight organs. In a typical procedure, the cell suspensions that were diluted according to the particular cell type and the expected target cell density (5000-40,000 cells per well based on cell growth characteristics) were added into 96-well microtiter plates. Inoculates were allowed a preincubation period of 24h at 37°C. for stabilization. Dilutions at twice the intended test concentrations were added at time zero in 100-µl aliquots to microtiter plate wells. Usually test compounds were evaluated at five 10-fold dilutions. The highest well concentration used in the test is 10^-4M. The cells are then incubated in the presence of drug (the test compound) for further 48h in 5% CO2 atmosphere and 100% humidity. At the end of this time, the adherent cells are fixed to the plate by means of trichloroacetic acid, and after a number of washes, the cell layer is treated with the protein stain Sulforhodamine B. The optical density which is proportional to protein mass, is then read by automated spectrophotometric plate readers at a wavelength of 515 nm. Readings are transferred to a microcomputer and final reports are generated using especially developed software.
# U 251 = assay: NCI in vitro 60 human tumor cell line assay; assay type: cell-based; conditions: U-251, 48 h, read-out: Total Growth Inhibition (TGI)
# Procedure: as §3
# MOLT 4 = assay: NCI in vitro 60 human tumor cell line assay; assay type: cell-based; conditions: MOLT-4, 48 h, read-out: Total Growth Inhibition (TGI)
# Procedure: as §3
# SF 295 = assay: NCI in vitro 60 human tumor cell line assay; assay type: cell-based; conditions: SF-295, 48 h, read-out: Total Growth Inhibition (TGI)
# Procedure: as §3
# HT 29 = assay: NCI in vitro 60 human tumor cell line assay; assay type: cell-based; conditions: Homo sapiens, HT-29, 48 h, read-out: Total Growth Inhibition (TGI)
# Procedure: as §3
compound,measurement,setting,value
5-hydroxymethyl camptothecin,anti-tumor activity,[1],reduced anti-tumor activity
"CCOC1c2cc3c(O)cccc3nc2-c2cc3c(c(=O)n21)COC(=O)[C@]3(O)CC (stereo partly drawn) [Example 11, 5-Ethoxy-9-hydroxycamptothecin]",solubility at 24 h,[2],170 µg/mL
same,MTD at 336 h,[3]; intravenous,100 mg/kg
same,MTD at 336 h,"[3]; ip, intraperitoneal",400 mg/kg
same,AUC(0-t),"Pharmacokinetics at MTD; DMSO:water (50:50), read-out: AUC0-1",18.5 ± 2.1 µM·h
same,Cmax,Pharmacokinetics at MTD,6.95 ± 1.2 µM
same,Tmax,Pharmacokinetics at MTD,1 h
same,half-life,Pharmacokinetics at MTD,1.92 ± 0.4 h
same,k el,Pharmacokinetics at MTD,0.000103 s⁻¹
same,mean GI50,[4],6.68 µM
same,GI50,DU-145,0.35 µM
same,GI50,UACC-62,40 µM
same,GI50,OVCAR-8,4.5 µM
same,GI50,MCF-7/ADR,1.5 µM
same,GI50,SF-268,6 µM
same,GI50,ACHN,0.55 µM
same,GI50,HOP-62,6 µM
same,solubility at 10 min,[5],< 1000 µg/mL
"CC[C@@]1(O)C(=O)OCc2c1cc1n(c2=O)C(OCC(F)(F)F)c2cc3ccccc3nc2-1 (stereo partly drawn) [Example 25, 5-trifluoroethoxycamptothecin]",IC (TGI),MCF 7,9.2 µM
same,IC (TGI),U 251,3.57 µM
same,mean GI50,[4],1.82 µM
same,IC (TGI),MOLT 4,3 µM
same,IC (TGI),SF 295,2.15 µM
same,IC (TGI),HT 29,7.9 µM
